In ChEMBL document CHEMBL3351791, “Some molecular targets for antihyperlipidemic drug research” (Eur J Med Chem, 2014):

Key:
[1] = target: T1, Cholesteryl ester transfer protein (Homo sapiens, UniProt P11597); assay: Inhibition of CETP-mediated [3H]-CE from HDL to LDL in human plasma
T1 sequence (P11597 whole entry): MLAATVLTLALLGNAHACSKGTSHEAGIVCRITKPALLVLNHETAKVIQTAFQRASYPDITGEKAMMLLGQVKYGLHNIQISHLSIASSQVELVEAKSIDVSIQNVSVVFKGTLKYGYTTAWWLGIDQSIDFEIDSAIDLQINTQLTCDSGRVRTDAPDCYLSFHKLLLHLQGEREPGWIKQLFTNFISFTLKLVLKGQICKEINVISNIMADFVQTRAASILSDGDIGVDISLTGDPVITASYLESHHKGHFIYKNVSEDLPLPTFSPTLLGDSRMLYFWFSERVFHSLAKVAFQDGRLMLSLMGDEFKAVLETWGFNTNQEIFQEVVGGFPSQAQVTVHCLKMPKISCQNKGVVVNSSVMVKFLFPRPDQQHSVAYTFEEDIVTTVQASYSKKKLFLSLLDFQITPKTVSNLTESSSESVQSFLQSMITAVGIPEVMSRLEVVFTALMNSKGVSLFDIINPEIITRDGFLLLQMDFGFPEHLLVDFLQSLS

Mus musculus = assay: Ex vivo inhibition of human CETP overexpressed in po dosed double transgenic mouse harboring human apoA1 assessed as elevation of HDL-cholesterol level measured at 8 hrs post dose; assay type: functional

Row | SMILES | IC50 [1] [nM] | ED50 (Mus musculus) [mg/kg]
1 | NCC(O)C(F)(F)F (configuration not stated) | 600 | 
2 | Cc1cc(C)c2c(c1)[C@@H](N(Cc1cc(C(F)(F)F)cc(C(F)(F)F)c1)c1nnn(C)n1)CCCN2C[C@H]1CC[C@H](C(=O)O)CC1 [EVACETRAPIB] |  | < 5
